Laboratory results reported in patent US12458680B2, “Reconstitutable teverelix-TFA composition” (Antev Limited, priority 2018, dated 2025).
Square brackets hold non-standard residues; d marks the D form. Peptide text beside a SMILES is read from it. dPhe(4-Cl) = N[C@H](Cc1ccc(Cl)cc1)C(=O)O; d2Nal = N[C@H](Cc1ccc2ccccc2c1)C(=O)O; d(hCit) = NC(=O)NCCCC[C@@H](N)C(=O)O; Lys(iPr) = CC(C)NCCCC[C@H](N)C(=O)O; d3Pal = N[C@H](Cc1cccnc1)C(=O)O

How the values were obtained:
[1] = Injection site reaction after subcutaneous and/or intramuscular injection; format: in vivo; conditions: 30-100 mg/ml, 0.4-1.6 ml
[2] = Plasma concentration of teverelix in patients versus weight; format: in vivo; conditions: different patients

For `CC(=O)N[C@H](Cc1ccc2ccccc2c1)C(=O)N[C@H](Cc1ccc(Cl)cc1)C(=O)N[C@H](Cc1cccnc1)C(=O)N[C@@H](CO)C(=O)N[C@@H](Cc1ccc(O)cc1)C(=O)N[C@H](CCCCNC(N)=O)C(=O)N[C@@H](CC(C)C)C(=O)N[C@@H](CCCCNC(C)C)C(=O)N1CCC[C@H]1C(=O)N[C@H](C)C(N)=O` [teverelix, Ac-D-Nal-D-pClPhe-D-Pal-Ser-Tyr-D-Hci-Leu-Lys (iPr)-Pro-D-Ala-NH2] (Ac-[d2Nal][dPhe(4-Cl)][d3Pal]SY[d(hCit)]L[Lys(iPr)]P[dA]-NH2), the injection site reaction [1] was “mild injection site reaction” and the “dependence of plasma concentration of teverelix on patients weight” value [2] was “substantially independent of the patients weight”.
